Target: T1, MERTK (cMER) A708S (Homo sapiens, UniProt Q12866, A708S)
T1 construct: purchased Thermo Fisher Scientific (Life Technologies) SelectScreen
Assay: SelectScreen LanthaScreen
Assay type: binding
Conditions: read-out: % displacement
Protocol: The in vitro kinase selectivity of NU5455 was determined using the SelectScreen Broad Assay Panel (Thermo Fisher Scientific) involving activity and binding assays (Supplemental Table 1). […] Class IA PI3Ks were measured using the p85α subunit.
Kinase [ATP] % Assay Kinase [ATP] % Assay Kinase [ATP] % Assay Kinase [ATP] % Assay […]
FGR Km app 12.1 Z SRC N1 Km app 3.9 Z MERTK (cMER) A708S n/a 0.6 L RET M918T n/a -3.5 L […]
SGK (SGK1) Km app 8.5 Z MAP4K2 (GCK) Km app 2.7 Z TLK2 n/a -0.3 L STK38 (NDR) n/a -5.9 L
MERTK (cMER) Km app 8.3 Z CDK2/cyclin A Km app 2.7 Z TGFBR1 (ALK5) n/a -0.4 L MATK (HYL) Km app -6.3 Z
FYN Km app 8.3 Z EPHA1 Km app 2.7 Z CLK3 Km app -0.5 Z ABL1 E255K Km app -6.6 Z
TEC n/a 8.1 L CDK2/cyclin E1 n/a 2.7 L MAP3K14 (NIK) n/a -0.5 L STK17A (DRAK1) n/a -6.6 L
KIT V654A n/a 8.1 L TESK2 n/a 2.7 L AKT3 (PKB gamma) Km app -0.5 Z JAK2 JH1 JH2 Km app -6.7 Z
ROS1 Km app 8.0 Z SPHK1 Km app 2.7 A MAP3K9 (MLK1) Km app -0.5 Z PRKACB (PRKAC beta) n/a -6.8 L
FGFR3 K650E Km app 7.9 Z AMPK A2/B1/G1 Km app 2.6 Z IKBKB (IKK beta) Km app -0.6 Z PDGFRA (PDGFR alpha) Km app -6.8 Z
RAF1 (cRAF) Y340D Y341D 100 7.9 Z DYRK3 Km app 2.6 Z CAMK2A (CaMKII alpha) Km app -0.6 Z NEK9 Km app -7.2 Z
PI4KA (PI4K alpha) 10 7.8 A CSNK1D (CK1 delta) Km app 2.6 Z PRKCB1 (PKC beta I) Km app -0.7 Z PDK1 Km app -7.3 Z
HIPK2 Km app 7.8 Z ACVR2A n/a 2.5 L TTK n/a -0.7 L RPS6KB1 (p70S6K) Km app -7.8 Z […]

T1 sequence (Q12866 21-999 A708S): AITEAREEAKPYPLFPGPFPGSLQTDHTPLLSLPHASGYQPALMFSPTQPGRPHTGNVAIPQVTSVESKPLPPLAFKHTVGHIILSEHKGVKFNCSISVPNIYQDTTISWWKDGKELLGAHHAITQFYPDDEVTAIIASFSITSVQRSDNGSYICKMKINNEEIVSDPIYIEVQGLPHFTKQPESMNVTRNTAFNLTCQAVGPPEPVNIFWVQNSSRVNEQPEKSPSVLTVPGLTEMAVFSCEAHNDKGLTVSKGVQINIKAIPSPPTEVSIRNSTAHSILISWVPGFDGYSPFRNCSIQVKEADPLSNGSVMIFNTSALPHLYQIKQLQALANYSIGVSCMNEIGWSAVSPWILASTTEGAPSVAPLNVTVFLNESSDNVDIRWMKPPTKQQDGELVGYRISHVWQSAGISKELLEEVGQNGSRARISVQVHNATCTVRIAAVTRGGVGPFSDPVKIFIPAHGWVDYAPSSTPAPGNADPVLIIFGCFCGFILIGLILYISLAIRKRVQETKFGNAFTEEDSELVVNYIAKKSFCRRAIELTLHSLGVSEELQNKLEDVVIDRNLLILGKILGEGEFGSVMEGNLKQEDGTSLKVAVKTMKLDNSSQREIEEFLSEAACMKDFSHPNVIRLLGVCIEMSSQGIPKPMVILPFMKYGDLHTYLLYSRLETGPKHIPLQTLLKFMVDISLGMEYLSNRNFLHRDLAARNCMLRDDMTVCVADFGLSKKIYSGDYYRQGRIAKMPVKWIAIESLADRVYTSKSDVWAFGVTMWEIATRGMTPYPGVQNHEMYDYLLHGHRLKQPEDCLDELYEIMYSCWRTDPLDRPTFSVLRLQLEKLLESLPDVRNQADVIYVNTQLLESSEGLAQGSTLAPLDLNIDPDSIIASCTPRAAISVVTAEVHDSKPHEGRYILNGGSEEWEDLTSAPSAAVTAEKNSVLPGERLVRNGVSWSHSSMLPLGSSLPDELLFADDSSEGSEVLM

CN(C(=O)CN1CCOCC1)c1ccc2sc3c(-c4cccc5c(=O)cc(N6CC7CCC(C6)O7)oc45)cccc3c2c1 [NU5455]
inhibition at 1 µM: 0.6%

From PMC6934184, “Selective DNA-PKcs inhibition extends the therapeutic index of localized radiotherapy and chemotherapy” (The Journal of Clinical Investigation, 2019)
